pEC50: −log10 of the molar value.
test system: HCV genotype 1b replicon; assay: HCV replicon assay (HCV 1b_Huh-Luc/Neo-ET cell line, luciferase readout); format: cell-based; settings: Hepatitis C virus; bicistronic genotype 1b replicon in Huh 7 cells, 72 h incubation, luciferase enzyme activity; read-out: Inhibition of HCV genotype 1b
Experimental: Biological activity of the compounds of the invention was determined using an HCV replicon assay. The HCV 1b_Huh-Luc/Neo-ET cell line persistently expressing a bicistronic genotype 1b replicon in Huh 7 cells was obtained from ReBLikon GMBH. This cell line was used to test compound inhibition using luciferase enzyme activity readout as a measurement of compound inhibition of replicon levels.
On Day 1 (the day after plating cells), each compound is added in triplicate to the cells. Plates are incubated for 72 h prior to determining luciferase levels. Enzyme activity was measured using a Bright-Glo Kit (cat. number E2620) manufactured by Promega Corporation. The following equation was used to generate a percent control value for each compound.
% Control=(Average Compound Value/Average Control)*100
The EC50 value was determined using GraphPad Prism and the following equation:
Y=Bottom+(Top−Bottom)/(1+10̂((LogIC50−X)*HillSlope))
EC50 values of compounds are determined several times in the replicon assay. […]

`O=C(N[C@@H](C(=O)N1CCC[C@H]1C(=O)Nc1ccc(-c2ccc(-c3cnc([C@@H]4CCCN4C(=O)[C@H](NC(=O)C4CC4)c4ccccc4)[nH]3)cc2)cc1)c1ccccc1)C1CC1` [Compound 27] and `O=C(N[C@@H](C(=O)N1CCC[C@H]1C(=O)Nc1ccc(-c2ccc(-c3cnc([C@@H]4COCCN4C(=O)[C@H](NC(=O)C4CC4)c4ccccc4)[nH]3)cc2)cc1)c1ccccc1)C1CC1` [Compound 11] cannot be ordered by pEC50: over 9.00 for the first, over 9.00 for the second.

`COC(=O)N[C@H](C(=O)N1CCC[C@H]1C(=O)Nc1ccc(-c2ccc(-c3cnc([C@@H]4CCCN4C(=O)[C@@H](NC(=O)OC)C(C)C)[nH]3)cc2)cc1)C(C)C` [Compound 109] and `COC(=O)N[C@H](C(=O)N1CCC[C@H]1C(=O)NCc1ccc(-c2ccc(-c3cnc([C@@H]4CCCN4C(=O)[C@@H](NC(=O)OC)C(C)C)[nH]3)cc2)cc1)C(C)C` [Compound 105] fall in the same range of pEC50: 6.00 to 8.00 for the first, 6.00 to 8.00 for the second.

`O=C(NC[C@@H]1CCCN1C(=O)[C@H](NC(=O)C1CC1)c1ccccc1)c1ccc(-c2ccc(-c3cnc([C@@H]4CCCN4C(=O)[C@H](NC(=O)C4CC4)c4ccccc4)[nH]3)cc2)cc1` [Compound 55] and `C[C@@H](NC(=O)[C@@H]1CCCN1C(=O)[C@H](NC(=O)C1CC1)c1ccccc1)c1ccc(-c2ccc(-c3cnc([C@@H]4CCCN4C(=O)[C@H](NC(=O)C4CC4)c4ccccc4)[nH]3)cc2)cc1` [Compound 40] cannot be ordered by pEC50: over 9.00 for the first, over 9.00 for the second.

`CC(C)(C)OC(=O)N[C@@H](C(=O)N1CCC[C@H]1CNC(=O)c1ccc(-c2ccc(-c3cnc([C@@H]4CCCN4C(=O)[C@H](NC(=O)OC(C)(C)C)c4ccccc4)[nH]3)cc2)cc1)c1ccccc1` [Compound 49] and `CC(C)(C)OC(=O)N[C@@H](C(=O)N1CCC[C@H]1COc1ccc(-c2ccc(-c3cnc([C@@H]4CCCN4C(=O)[C@H](NC(=O)OC(C)(C)C)c4ccccc4)[nH]3)cc2)cc1)c1ccccc1` [Compound 30] cannot be ordered by pEC50: over 9.00 for the first, over 9.00 for the second.

`COC(=O)N[C@H](C(=O)N1CCC[C@H]1C(=O)N[C@@H](C)c1ccc(-c2ccc(-c3cnc([C@@H]4CCCN4C(=O)[C@@H](NC(=O)OC)C4CCOCC4)[nH]3)cc2)cc1)C1CCOCC1` [Compound 101] and `COC(=O)N[C@@H](C)C(=O)N1CCC[C@H]1C(=O)N[C@@H](C)c1ccc(-c2ccc(-c3cnc([C@@H]4CCCN4C(=O)[C@H](C)NC(=O)OC)[nH]3)cc2)cc1` [Compound 94] fall in the same range of pEC50: 8.00 to 9.00 for the first, 8.00 to 9.00 for the second.

`O=C(N[C@@H](C(=O)N1CCC[C@H]1c1ncc(-c2ccc(Oc3ccc(-c4cnc([C@@H]5CCCN5C(=O)[C@H](NC(=O)C5CC5)c5ccccc5)[nH]4)cc3)cc2)[nH]1)c1ccccc1)C1CC1` [Compound 54] and `CC(C)(C)OC(=O)N[C@@H](C(=O)N1CCC[C@H]1c1ncc(-c2ccc(Oc3ccc(-c4cnc([C@@H]5CCCN5C(=O)[C@H](NC(=O)OC(C)(C)C)c5ccccc5)[nH]4)cc3)cc2)[nH]1)c1ccccc1` [Compound 52] cannot be ordered by pEC50: over 9.00 for the first, over 9.00 for the second.

First: COC(=O)N[C@H](C(=O)N1CCC[C@H]1C(=O)NCc1ccc(-c2ccc(-c3cnc([C@@H]4CCCN4C(=O)[C@@H](NC(=O)OC)C(C)C)[nH]3)cc2)cn1)C(C)C [Compound 119]
Second: COC(=O)N[C@H](C(=O)N1CCC[C@H]1C(=O)N[C@@H](C)c1ccc(-c2ccc(-c3cnc([C@@H]4CCCN4C(=O)[C@@H](NC(=O)OC)[C@@H](C)OC)[nH]3)cc2)cc1)[C@@H](C)OC [Compound 100]
The pEC50 of the first is lower: 6.00 to 8.00 for the first, over 9.00 for the second.

First: COC(=O)N[C@H](C(=O)N1CCC[C@H]1C(=O)Nc1ccc(-c2ccc3c(ccc4nc([C@@H]5CCCN5C(=O)[C@@H](NC(=O)OC)C(C)C)[nH]c43)c2)cc1)C(C)C [Compound 114]
Second: COC(=O)N[C@H](C(=O)N1CCC[C@H]1C(=O)Nc1ccc(-c2ccc3c(c2)CCc2nc([C@@H]4CCCN4C(=O)[C@@H](NC(=O)OC)C(C)C)[nH]c2-3)cc1)C(C)C [Compound 112]
The pEC50 of the first is higher: over 9.00 for the first, 8.00 to 9.00 for the second. The first is the more potent here.

`COC(=O)N[C@@H](C(=O)N[C@@H](C)c1ncc(-c2ccc(-c3ccc(C(=O)NC[C@@H]4CCCN4C(=O)[C@H](NC(=O)OC)c4ccccc4)cc3)cc2)[nH]1)c1ccccc1` [Compound 89] and `COC(=O)N[C@@H](C(=O)N1CCC[C@H]1CNC(=O)c1ccc(-c2ccc(-c3cnc([C@@H]4CCCN4C(=O)[C@H](NC(=O)N4CCN(C)CC4)c4ccccc4)[nH]3)cc2)cc1)c1ccccc1` [Compound 68] cannot be ordered by pEC50: over 9.00 for the first, over 9.00 for the second.

Compared with `COC(=O)N[C@H](C(=O)N[C@@H](C)c1ncc(-c2ccc(-c3ccc(C(=O)NC[C@@H]4CCCN4C(=O)[C@@H](NC(=O)OC)C(C)C)nc3)cc2)[nH]1)C(C)C` [Compound 92], `COC(=O)N[C@H](C(=O)N1CCC[C@H]1CNC(=O)c1ccc(-c2ccc3c(c2)CCc2nc([C@@H]4CCCN4C(=O)[C@@H](NC(=O)OC)C(C)C)[nH]c2-3)cc1)C(C)C` [Compound 84] is higher in pEC50: 8.00 to 9.00 for the first, over 9.00 for the second. The second is the more potent here.

`C[C@@H](NC(=O)[C@@H]1CCCN1C(=O)[C@H](NC(=O)N1CCN(C)CC1)c1ccccc1)c1ccc(-c2ccc(-c3cnc([C@@H]4CCCN4C(=O)[C@H](NC(=O)N4CCN(C)CC4)c4ccccc4)[nH]3)cc2)cc1` [Compound 42] and `O=C(NCc1ccc(-c2ccc(-c3cnc([C@@H]4CCCN4C(=O)[C@H](NC(=O)N4CCOCC4)c4ccccc4)[nH]3)cc2)cc1)[C@@H]1CCCN1C(=O)[C@H](NC(=O)N1CCOCC1)c1ccccc1` [Compound 44] fall in the same range of pEC50: 8.00 to 9.00 for the first, 8.00 to 9.00 for the second.

`C[C@@H](NC(=O)OC(C)(C)C)C(=O)N1CCC[C@H]1C(=O)Nc1ccc(-c2ccc(-c3cnc([C@@H]4COCCN4C(=O)[C@@H](C)NC(=O)OC(C)(C)C)[nH]3)cc2)cc1` [Compound 9] and `CC(C)[C@@H](NC(=O)OC(C)(C)C)C(=O)N1CCOC[C@H]1C(=O)Nc1ccc(-c2ccc(-c3cnc([C@@H]4CCCN4C(=O)[C@H](NC(=O)OC(C)(C)C)C(C)C)[nH]3)cc2)cc1` [Compound 13] fall in the same range of pEC50: 6.00 to 8.00 for the first, 6.00 to 8.00 for the second.

`C[C@@H](NC(=O)C1CC1)C(=O)N1CCOC[C@H]1C(=O)Nc1ccc(-c2ccc(-c3cnc([C@@H]4CCCN4C(=O)[C@@H](C)NC(=O)C4CC4)[nH]3)cc2)cc1` [Compound 22] and `CC(C)[C@@H](NC(=O)OC(C)(C)C)C(=O)N1CCC[C@H]1C(=O)Nc1ccc(-c2ccc(-c3cnc([C@@H]4CCCN4C(=O)[C@H](NC(=O)OC(C)(C)C)C(C)C)[nH]3)cc2)cc1` [Compound 15] fall in the same range of pEC50: 8.00 to 9.00 for the first, 8.00 to 9.00 for the second.

First: C=CC[C@H](NC(=O)OC)C(=O)N1CCC[C@H]1C(=O)NCc1ccc(-c2ccc(-c3cnc([C@@H]4CCCN4C(=O)[C@H](CC=C)NC(=O)OC)[nH]3)cc2)cc1 [Compound 80]
Second: C[C@H](NC(=O)[C@@H]1CCCN1C(=O)[C@H](NC(=O)OC(C)(C)C)c1ccccc1)c1ccc(-c2ccc(-c3cnc([C@@H]4CCCN4C(=O)[C@H](NC(=O)OC(C)(C)C)c4ccccc4)[nH]3)cc2)cc1 [Compound 34]
The pEC50 of the first is lower: 8.00 to 9.00 for the first, over 9.00 for the second.

`CC(C)(C)OC(=O)N[C@@H](C(=O)N1CCOC[C@H]1C(=O)Nc1ccc(-c2ccc(-c3cnc([C@@H]4COCCN4C(=O)[C@H](NC(=O)OC(C)(C)C)c4ccccc4)[nH]3)cc2)cc1)c1ccccc1` [Compound 16] and `O=C(NC[C@@H]1CCCN1C(=O)[C@H](NC(=O)N1CCOCC1)c1ccccc1)c1ccc(-c2ccc(-c3cnc([C@@H]4CCCN4C(=O)[C@H](NC(=O)N4CCOCC4)c4ccccc4)[nH]3)cc2)cc1` [Compound 56] cannot be ordered by pEC50: over 9.00 for the first, over 9.00 for the second.

`COC(=O)N[C@H](C(=O)N1CCC[C@H]1c1nc2c([nH]1)-c1ccc(-c3ccc(NC(=O)[C@@H]4CCCN4C(=O)[C@H](NC(=O)OC)c4ccccc4)cc3)cc1CC2)C(C)C` [Compound 117] gave a pEC50 of over 9.00.

Reference: US20120040977A1, “INHIBITORS OF HCV NS5A” (PRESIDIO PHARMACEUTICALS, INC., priority 2009, published 2012)
